From PMC3856494, “Radiofluorination and biological evaluation of N-aryl-oxadiazolyl-propionamides as potential radioligands for PET imaging of cannabinoid CB2 receptors” (Organic and Medicinal Chemistry Letters, 2013)
Like-named read-outs stand apart in the source and are kept apart here.

Experiments:
human CB2R = human CB2R (Homo sapiens, UniProt P34972); experiment: In vitro CB receptor affinity assay, displacement of [3H]CP55,940, CHO cells transfected with human CB2R; assay type: binding
Description: (§1) For binding experiments, Chinese hamster ovary (CHO) cell lines stably transfected with human CB1R human and CB2R were used according to the procedures previously described. […] The binding experiments were performed in triplicates, and data were given as mean values from independent experiments.

human CB1R = human CB1R (Homo sapiens, UniProt P21554); experiment: In vitro CB receptor affinity assay, displacement of [3H]CP55,940, CHO cells transfected with human CB1R; assay type: binding
Description: as §1

[1] = HPLC-based logD determination; assay type: physicochemical; settings: RP-HPLC, reference compounds
Description: The distribution coefficients of [^18F]1 and [^18F]2 were also calculated from RP-HPLC retention times in three different systems: (1) isocratic elution (60% MeCN/20 mM NH4OAc at a flow rate of 1 mL/min) and (2) gradient elution (starting from 10% MeCN/20 mM NH4OAc aq. for 10 min with a gradient to 90% MeCN/20 mM NH4OAc aq. over 30 min at a flow rate of 1 mL/min) on a Reprosil-Pur C18-AQ column (5 μm, 250 × 4.6 mm, Dr. Maisch HPLC GmbH, Ammerbruch-Entringen, Germany), and (3) isocratic elution (52.5% MeCN/20 mM NH4OAc at a flow rate of 1 mL/min) on a Prodigy 5 μm C8 (250 × 4 mm; Phenomenex Ltd, Aschaffenburg, Germany) using the reference compounds following the protocol according to the EU guideline 67/548/EWG [44].

Chain of human CB2R (P34972 whole entry): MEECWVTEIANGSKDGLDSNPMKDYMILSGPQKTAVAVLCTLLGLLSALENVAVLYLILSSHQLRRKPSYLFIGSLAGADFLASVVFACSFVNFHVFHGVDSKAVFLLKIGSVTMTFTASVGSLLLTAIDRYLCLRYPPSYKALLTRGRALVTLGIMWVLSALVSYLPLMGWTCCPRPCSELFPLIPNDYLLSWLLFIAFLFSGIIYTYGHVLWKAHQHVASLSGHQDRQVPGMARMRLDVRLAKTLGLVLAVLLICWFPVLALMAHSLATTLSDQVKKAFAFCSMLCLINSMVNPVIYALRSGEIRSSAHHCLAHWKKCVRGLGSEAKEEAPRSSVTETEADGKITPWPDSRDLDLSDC
Chain of human CB1R (P21554 whole entry): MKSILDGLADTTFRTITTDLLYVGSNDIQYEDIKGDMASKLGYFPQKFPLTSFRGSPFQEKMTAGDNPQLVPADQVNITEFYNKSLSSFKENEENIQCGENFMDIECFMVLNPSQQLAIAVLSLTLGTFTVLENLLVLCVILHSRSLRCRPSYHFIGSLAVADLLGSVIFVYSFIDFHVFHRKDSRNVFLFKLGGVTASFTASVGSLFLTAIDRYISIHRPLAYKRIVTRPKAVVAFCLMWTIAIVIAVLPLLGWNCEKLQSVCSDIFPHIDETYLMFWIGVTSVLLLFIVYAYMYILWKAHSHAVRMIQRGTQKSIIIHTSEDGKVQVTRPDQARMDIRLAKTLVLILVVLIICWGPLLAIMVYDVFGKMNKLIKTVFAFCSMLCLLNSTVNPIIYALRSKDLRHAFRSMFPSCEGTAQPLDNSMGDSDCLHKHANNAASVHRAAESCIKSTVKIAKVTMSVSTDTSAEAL

O=C(CCc1nc(-c2ccc(F)cc2Br)no1)Nc1ccc2c(c1)c1ccccc1n2CCF [Compound 1, 3-[3-(2-Bromo-4-fluorophenyl)-1,2,4-oxadiazol-5-yl]-N-[9-(2-fluoroethyl)-9H-carbazol-3-yl]propanamide]
Ki (human CB2R): 2.32 ± 2.12 nM
Ki (human CB1R): > 1000 nM
chromatographic logD ([1]; Prodigy 5 μm C8 column, isocratic 52.5% MeCN/20 mM NH4OAc, n = 3 to 6, read-out: logD Prodigy 5 μ C8 Isocratic): 3.86 ± 0.33
chromatographic logD ([1]; Reprosil-Pur C18-AQ column, gradient 10% to 90% MeCN/20 mM NH4OAc, n = 3 to 6, read-out: logD Reposil-Pur C18-AQ Gradient): 3.82 ± 0.1
chromatographic logD ([1]; Reprosil-Pur C18-AQ column, isocratic 60% MeCN/20 mM NH4OAc, n = 3 to 6, read-out: logD Reposil-Pur C18-AQ Isocratic): 4.21 ± 0.32
